Data on 14 molecules can be found in patent US20140364431A1, “Quinoline and cinnoline derivatives and their applications” (Shenyang Pharmaceutical University, priority 2011, published 2014).

Values after ≈ are worked out from the molar mass of the structure shown.

For test [1], the system named is H460 (human lung cancer cell). The test is described as follows: In vitro anti-tumor cellular activity (MTT), H460. Format: cell-based. Conditions: MTT, 72 hours, H460; for IC50: Homo sapiens, NCI-H460, read-out: H460 IC50.
In test [2] the test system is U87MG (Human malignant glioblastoma cells). Kind of test: In vitro anti-tumor cellular activity (MTT), U87MG. To be noted: MTT, 72 hours, U87MG; for IC50: Homo sapiens, U-87 MG, read-out: U87MG IC50. In kind it is cell-based.
For test [3], the system named is HT-29 (colon cancer cell). Kind of test: In vitro anti-tumor cellular activity (MTT), HT-29. Conditions: MTT, 72 hours, HT-29; for IC50: Homo sapiens, read-out: HT-29 IC50. In kind it is cell-based, human.
Test [4] deals with MKN-45 (human gastric carcinoma cell). The test is described as follows: In vitro anti-tumor cellular activity (MTT), MKN-45. Format: cell-based. To be noted: MTT, 72 hours, MKN-45; for IC50: Homo sapiens, read-out: MKN-45 IC50.
Test [5] concerns SMMC-7721 (hepatoma cell). The test is described as follows: In vitro anti-tumor cellular activity (MTT), SMMC-7721. In kind it is cell-based, human. Conditions: MTT, 72 hours, SMMC-7721; for IC50: Homo sapiens, read-out: SMMC-7721 IC50.
Test [6] has as its target T1, c-Met (His-tagged recombinant human Met (Amino acids 974-ends)) (Homo sapiens, UniProt P08581).
T1 construct: His-tagged recombinant human Met (Amino acids 974-ends); His; host or cells: baculovirus expression
Kind of test: c-Met kinase assay (ELISA). In kind it is biochemical. To be noted: 50 pM c-Met, 5 μM ATP, 20 min. How it is done:
c-Met kinase activity was measured with an ELISA reader.
The reaction mixture was removed by washing with 0.2 μg/mL conjugated horseradish peroxidase (HRP) monoclonal antibody specific for phosphotyrosine (PY20) detecting phosphorylation of the substrate polymer. 1M phosphoric acid was added to terminate the color, the chromogenic substrate (TMB) was tested by spectrophotometry at 450 nm.

For test [7], the system named is human tumor cell lines (such as human lung cancer cells, human gastric cancer cells, etc.). Conditions: cited from earlier work.

T1 sequence (P08581 974-1390 limits assumed): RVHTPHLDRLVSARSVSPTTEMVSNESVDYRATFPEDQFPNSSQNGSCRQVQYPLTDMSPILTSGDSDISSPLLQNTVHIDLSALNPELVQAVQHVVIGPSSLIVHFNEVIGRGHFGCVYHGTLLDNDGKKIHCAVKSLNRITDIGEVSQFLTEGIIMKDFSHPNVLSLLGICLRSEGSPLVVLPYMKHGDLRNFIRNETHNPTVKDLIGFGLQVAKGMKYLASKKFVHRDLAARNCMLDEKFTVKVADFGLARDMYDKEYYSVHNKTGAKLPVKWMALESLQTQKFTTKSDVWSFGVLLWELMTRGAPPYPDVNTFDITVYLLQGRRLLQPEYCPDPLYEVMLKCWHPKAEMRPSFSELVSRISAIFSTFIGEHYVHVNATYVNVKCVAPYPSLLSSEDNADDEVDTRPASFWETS

The IC50 is the point on the concentration scale where inhibition reaches its midpoint. Consider `COc1cc2c(Oc3ccc(NC(=O)c4cn(-c5ccccc5Cl)c5ccccc5c4=O)cc3F)ccnc2cc1OCCCN1CCN(C)CC1` [Example 56, N-(3-fluoro-4-((6-methoxy-7-(3-(4-methylpiperazin-1-yl)propoxy)quinolin-4-yl)oxy)phenyl)-1-(2-chlorophenyl)-4-oxo-1,4-dihydroquinoline-3-carboxamide], for which the IC50 is 0.75 µg/mL (≈ 1.04 µM) in test [1]; 0.12 µg/mL (≈ 0.166 µM) in test [2]; 0.2 µg/mL (≈ 0.277 µM) in test [3]; 0.21 µg/mL (≈ 0.291 µM) in test [4]; 0.74 µg/mL (≈ 1.02 µM) in test [5]; 138 nM in test [6].

`COc1cc2c(Oc3ccc(NC(=O)c4cn(-c5ccccc5C(F)(F)F)c5ccccc5c4=O)cc3F)ccnc2cc1OCCCN1CCC(C)CC1` [Example 57, N-(3-fluoro-4-((6-methoxy-7-(3-(4-methylpiperidin-1-yl)propoxy)quinolin-4-yl)oxy)phenyl)-4-oxo-1-(2-(trifluoromethyl)phenyl)-1,4-dihydroquinoline-3-carboxamide]: the half-inhibitory concentration (IC50) is 1.3 µg/mL (≈ 1.72 µM) in test [1]; 1.1 µg/mL (≈ 1.46 µM) in test [2]; 0.87 µg/mL (≈ 1.15 µM) in test [3]; 0.91 µg/mL (≈ 1.21 µM) in test [4]; 0.58 µg/mL (≈ 0.768 µM) in test [5]; 1060 nM in test [6].

Take `COc1cc2c(Oc3ccc(NC(=O)c4nn(-c5ccc(Cl)cc5)c5ccccc5c4=O)cc3F)cnnc2cc1OCCCN1CCOCC1` [Example 66, N-(3-fluoro-4-((6-methoxy-7-(3-(morpholin-4-yl)propoxy)cinnolin-4-yl)oxy)phenyl)-1-(4-chlorophenyl)-4-oxo-1,4-dihydrocinnoline-3-carboxamide]: the IC50 in test [1] is 0.89 µg/mL (≈ 1.25 µM); in test [2], 2.1 µg/mL (≈ 2.95 µM); in test [3], 1.4 µg/mL (≈ 1.97 µM); in test [4] it was 2.4 µg/mL (≈ 3.37 µM); in test [5], 1.7 µg/mL (≈ 2.39 µM); in test [6], 562 nM.

As to `COc1cc2c(Oc3ccc(NC(=O)c4nn(-c5ccc(Cl)cc5)c5ccccc5c4=O)cc3F)cnnc2cc1OCCCN1CCC(C)CC1` [Example 67, N-(3-fluoro-4-((6-methoxy-7-(3-(4-methylpiperidin-1-yl)propoxy)cinnolin-4-yl)oxy)phenyl)-1-(4-chlorophenyl)-4-oxo-1,4-dihydrocinnoline-3-carboxamide], the IC50 was 2.5 µg/mL (≈ 3.46 µM) in test [1]; 1.7 µg/mL (≈ 2.35 µM) in test [2]; 0.96 µg/mL (≈ 1.33 µM) in test [3]; 2.2 µg/mL (≈ 3.04 µM) in test [4]; 1.6 µg/mL (≈ 2.21 µM) in test [5]; 1520 nM in test [6].

For the molecule `COc1cc2c(Oc3ccc(NC(=O)c4nn(-c5ccc(Br)cc5F)c5ccccc5c4=O)cc3F)cnnc2cc1OCCCN1CCOCC1` [Example 68, N-(3-fluoro-4-((6-methoxy-7-(3-(morpholin-4-yl)propoxy)cinnolin-4-yl)oxy)phenyl)-1-(4-bromo-2-fluorophenyl)-4-oxo-1,4-dihydrocinnoline-3-carboxamide], the IC50 is 1.5 µg/mL (≈ 1.94 µM) in test [1]; 1.3 µg/mL (≈ 1.68 µM) in test [2]; 2.1 µg/mL (≈ 2.71 µM) in test [3]; 2.5 µg/mL (≈ 3.23 µM) in test [4]; 2.9 µg/mL (≈ 3.75 µM) in test [5]; 1160 nM in test [6].

In the case of `COc1cc2c(Oc3ccc(NC(=O)c4nn(-c5ccc(F)cc5)c5ccccc5c4=O)cc3F)cnnc2cc1OCCCN1CCN(C)CC1` [Example 69, N-(3-fluoro-4-((6-methoxy-7-(3-(4-methylpiperazin-1-yl)propoxy)cinnolin-4-yl)oxy)phenyl)-1-(4-fluorophenyl)-4-oxo-1,4-dihydrocinnoline-3-carboxamide], the half-inhibitory concentration (IC50) in test [1] was 2.3 µg/mL (≈ 3.25 µM); in test [2], 1.8 µg/mL (≈ 2.54 µM); in test [3], 2.1 µg/mL (≈ 2.97 µM); in test [4], 2.6 µg/mL (≈ 3.67 µM); in test [5], 1.3 µg/mL (≈ 1.84 µM); in test [6] it was 1550 nM.

As for `COc1cc2c(Oc3ccc(NC(=O)C4(C(=O)Nc5ccc(F)cc5)CC4)cc3F)ccnc2cc1OCCCN1CCOCC1` [Foretinib], the “IC50 against a variety of human tumor cell lines” value in test [7] is 0.004 µg/mL.

On to “N-(3-fluoro-4-((6-methoxy-7-(3-(4-methylpiperazin-1-yl)propoxy)quinolin-4-yl)oxy)phenyl)-1-(2-(trifluoromethyl)phenyl)-4-oxo-1,4-dihydrocinnoline-3-carboxamide [Example 44]”, for which, in test [1], the “H460 IC50” value is 1.6 µg/mL. Also, the “U87MG IC50” value in test [2] stood at 0.84 µg/mL. Moreover, the “HT-29 IC50” value in test [3] is 1.2 µg/mL. Moreover, the “MKN-45 IC50” value in test [4] came out at 1.8 µg/mL. For the same molecule, the “SMMC-7721 IC50” value in test [5] came to 2.1 µg/mL. Moreover, the “c-Met IC50” value in test [6] came to 1.1 µg/mL.

As to “N-(3-fluoro-4-((6-methoxy-7-(3-(4-methylpiperazin-1-yl)propoxy)quinolin-4-yl)oxy)phenyl)-1-(2-chlorophenyl)-4-oxo-1,4-dihydrocinnoline-3-carboxamide dihydrochloride [Example 17]”, in test [1], the “H460 IC50” value was 1.4 µg/mL. In test [2], the “U87MG IC50” value was determined as 0.9 µg/mL. Besides, in test [3], the “HT-29 IC50” value stood at 1.8 µg/mL. In addition, in test [4], the “MKN-45 IC50” value was found to be 2.1 µg/mL. Moreover, in test [5], the “SMMC-7721 IC50” value is 0.5 µg/mL. Further, in test [6], the “c-Met IC50” value amounted to 0.2 µg/mL.

For “N-(3-fluoro-4-((6-methoxy-7-(3-(4-methylpiperidin-1-yl)propoxy)quinolin-4-yl)oxy)phenyl)-1-(2-chlorophenyl)-4-oxo-1,4-dihydrocinnoline-3-carboxamide dihydrochloride [Example 15]”, in test [1], the “H460 IC50” value came out at 1 µg/mL. Also, the “U87MG IC50” value in test [2] came out at 0.2 µg/mL. For the same molecule, the “HT-29 IC50” value in test [3] is 0.6 µg/mL. Besides, in test [4], the “MKN-45 IC50” value was determined as 0.8 µg/mL. The “SMMC-7721 IC50” value in test [5] was determined as 1.5 µg/mL. Further, the “c-Met IC50” value in test [6] was found to be 0.66 µg/mL.

As to “N-(3-fluoro-4-((6-methoxy-7-(3-(4-methylpiperidin-1-yl)propoxy)quinolin-4-yl)oxy)phenyl)-1-(3,4-difluorophenyl)-4-oxo-1,4-dihydroquinoline-3-carboxamide [Example 58]”, the “H460 IC50” value in test [1] stood at 1.4 µg/mL. Besides, the “U87MG IC50” value in test [2] was determined as 2.1 µg/mL. Further, the “HT-29 IC50” value in test [3] amounted to 0.95 µg/mL. Besides, in test [4], the “MKN-45 IC50” value turned out to be 1.8 µg/mL. In addition, in test [5], the “SMMC-7721 IC50” value amounted to 1.1 µg/mL. The “c-Met IC50” value in test [6] was determined as 0.72 µg/mL.

For the molecule “N-(3-fluoro-4-((6-methoxy-7-(3-(piperidin-1-yl)propoxy)quinolin-4-yl)oxy)phenyl)-1-(2-fl uorophenyl)-4-oxo-1,4-dihydrocinnoline-3-carboxamide [Example 7]”, the “H460 IC50” value in test [1] worked out at 1.7 µg/mL. Further, the “U87MG IC50” value in test [2] came to 1.5 µg/mL. Besides, the “HT-29 IC50” value in test [3] amounted to 0.82 µg/mL. Also, in test [4], the “MKN-45 IC50” value came to 1.4 µg/mL. Also, in test [5], the “SMMC-7721 IC50” value is 0.63 µg/mL. In addition, in test [6], the “c-Met IC50” value stood at 0.5 µg/mL.

Take “N-(3-fluoro-4-((6-methoxy-7-(3-(piperidin-1-yl)propoxy)quinolin-4-yl)oxy)phenyl)-1-(4-fl uorophenyl)-4-oxo-1,4-dihydroquinoline-3-carboxamide dihydrochloride [Example 49]”: the “H460 IC50” value in test [1] amounted to 1.1 µg/mL. In addition, the “U87MG IC50” value in test [2] was found to be 0.9 µg/mL. Also, the “HT-29 IC50” value in test [3] stood at 1.3 µg/mL. Besides, the “MKN-45 IC50” value in test [4] stood at 0.76 µg/mL. Moreover, in test [5], the “SMMC-7721 IC50” value was 0.99 µg/mL. Besides, in test [6], the “c-Met IC50” value amounted to 0.6 µg/mL.

With “N-(3-fluoro-4-((6-methoxy-7-(3-(pyrrolidin-1-yl)propoxy)quinolin-4-yl)oxy)phenyl)-1-(2-c hlorophenyl)-4-oxo-1,4-dihydrocinnoline-3-carboxamide dihydrochloride [Example 16]”, the “H460 IC50” value in test [1] was 0.69 µg/mL. Further, the “U87MG IC50” value in test [2] was 0.2 µg/mL. Besides, in test [3], the “HT-29 IC50” value was found to be 0.57 µg/mL. The “MKN-45 IC50” value in test [4] worked out at 1.1 µg/mL. For the same molecule, the “SMMC-7721 IC50” value in test [5] came to 0.45 µg/mL. For the same molecule, the “c-Met IC50” value in test [6] is 0.9 µg/mL.
